Among the data in ChEMBL document CHEMBL1201862, “PubChem BioAssay data set” (2004) are IC50, AC50 and EC50 values, retold here.

Usually IC50 stands for the concentration needed to halve the response being measured. The AC50 is the concentration giving half of the maximal activity seen. By EC50 is commonly meant the midpoint of the concentration-response curve.

The target in assay [1] is Ubiquitin carboxyl-terminal hydrolase BAP1 (Homo sapiens, UniProt Q92560). Put plainly: inhibition of BAP1 ubiquitin hydrolase activity – biochemical, dose response (AID 714). In kind it is functional.
Chain of Ubiquitin carboxyl-terminal hydrolase BAP1 (Q92560 whole entry): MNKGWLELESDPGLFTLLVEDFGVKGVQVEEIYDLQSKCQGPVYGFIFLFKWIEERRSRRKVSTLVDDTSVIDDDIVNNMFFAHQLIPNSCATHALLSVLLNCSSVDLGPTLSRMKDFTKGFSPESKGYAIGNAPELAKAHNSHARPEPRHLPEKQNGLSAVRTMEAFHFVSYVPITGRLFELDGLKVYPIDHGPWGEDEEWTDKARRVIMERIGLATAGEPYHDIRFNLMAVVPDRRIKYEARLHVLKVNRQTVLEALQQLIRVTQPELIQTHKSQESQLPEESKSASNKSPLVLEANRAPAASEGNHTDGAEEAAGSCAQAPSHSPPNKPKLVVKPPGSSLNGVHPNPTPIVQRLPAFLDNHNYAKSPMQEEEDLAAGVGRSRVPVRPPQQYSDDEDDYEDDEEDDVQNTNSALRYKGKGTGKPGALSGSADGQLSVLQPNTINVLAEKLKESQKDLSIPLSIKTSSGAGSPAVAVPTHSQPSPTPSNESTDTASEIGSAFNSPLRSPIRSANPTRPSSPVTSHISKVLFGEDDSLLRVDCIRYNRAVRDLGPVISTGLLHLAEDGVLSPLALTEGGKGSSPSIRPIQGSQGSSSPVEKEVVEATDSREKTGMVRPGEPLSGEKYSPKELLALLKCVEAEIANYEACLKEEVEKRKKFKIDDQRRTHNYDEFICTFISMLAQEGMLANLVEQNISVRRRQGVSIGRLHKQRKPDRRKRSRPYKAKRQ
In the next assay the target is 14-3-3 protein gamma (Homo sapiens, UniProt P61981). The experiment in a line: modulators of 14-3-3 gamma client binding – dose response (AID 711). Format: functional.
Chain of 14-3-3 protein gamma (P61981 whole entry): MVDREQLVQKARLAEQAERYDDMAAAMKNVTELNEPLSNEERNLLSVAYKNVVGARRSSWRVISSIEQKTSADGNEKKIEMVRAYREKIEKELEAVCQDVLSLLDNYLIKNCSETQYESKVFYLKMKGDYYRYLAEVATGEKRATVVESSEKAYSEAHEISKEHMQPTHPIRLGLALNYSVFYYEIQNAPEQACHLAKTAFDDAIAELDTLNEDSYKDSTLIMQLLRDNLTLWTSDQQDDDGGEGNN
The target of another assay is T1, Insulin-degrading enzyme (Homo sapiens, UniProt P14735).
T1 sequence (P14735 whole entry): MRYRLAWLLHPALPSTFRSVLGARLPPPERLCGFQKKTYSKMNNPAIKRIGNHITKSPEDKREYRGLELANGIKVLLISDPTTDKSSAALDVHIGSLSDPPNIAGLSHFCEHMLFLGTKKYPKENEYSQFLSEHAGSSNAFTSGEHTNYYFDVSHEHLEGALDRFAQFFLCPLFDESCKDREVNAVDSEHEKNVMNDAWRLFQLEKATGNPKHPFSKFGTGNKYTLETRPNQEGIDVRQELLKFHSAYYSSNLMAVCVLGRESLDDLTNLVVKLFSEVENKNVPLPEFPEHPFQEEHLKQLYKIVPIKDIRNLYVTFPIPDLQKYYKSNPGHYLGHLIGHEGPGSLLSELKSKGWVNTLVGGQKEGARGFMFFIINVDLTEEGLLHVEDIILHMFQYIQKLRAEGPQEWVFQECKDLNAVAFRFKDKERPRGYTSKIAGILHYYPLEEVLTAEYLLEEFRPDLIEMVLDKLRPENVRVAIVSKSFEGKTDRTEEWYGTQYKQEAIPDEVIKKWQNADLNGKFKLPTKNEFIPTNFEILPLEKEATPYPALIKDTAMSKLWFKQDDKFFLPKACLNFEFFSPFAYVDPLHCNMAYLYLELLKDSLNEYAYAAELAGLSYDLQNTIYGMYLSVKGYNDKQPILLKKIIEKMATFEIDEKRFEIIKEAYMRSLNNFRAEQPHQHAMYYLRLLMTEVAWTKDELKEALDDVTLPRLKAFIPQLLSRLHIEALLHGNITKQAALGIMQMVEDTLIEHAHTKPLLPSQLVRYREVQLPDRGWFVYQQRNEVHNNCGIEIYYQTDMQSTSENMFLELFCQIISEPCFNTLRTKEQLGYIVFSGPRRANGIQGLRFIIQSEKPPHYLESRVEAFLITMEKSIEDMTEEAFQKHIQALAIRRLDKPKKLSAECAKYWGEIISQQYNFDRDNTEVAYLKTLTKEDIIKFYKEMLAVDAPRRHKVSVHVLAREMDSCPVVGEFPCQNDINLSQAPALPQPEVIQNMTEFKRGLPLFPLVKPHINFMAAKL
The experiment in a line: Dose Response: Fluorescence polarization-based cell-based high throughput dose response assay for inhibitors of insulin-degrading enzyme (IDE). [Related pubchem assays: 434962 (Primary screen (IDE inhibitors in singlicate)), 449730 (Counterscreen (Cytotoxicity in triplicate)), 435028 (Confirmation (IDE inhibitors in triplicate)), 434984 (Summary …. In kind it is functional.

In assay [2] the target is T2, Mannose-6-phosphate isomerase (Homo sapiens, UniProt P34949).
T2 sequence (P34949 whole entry): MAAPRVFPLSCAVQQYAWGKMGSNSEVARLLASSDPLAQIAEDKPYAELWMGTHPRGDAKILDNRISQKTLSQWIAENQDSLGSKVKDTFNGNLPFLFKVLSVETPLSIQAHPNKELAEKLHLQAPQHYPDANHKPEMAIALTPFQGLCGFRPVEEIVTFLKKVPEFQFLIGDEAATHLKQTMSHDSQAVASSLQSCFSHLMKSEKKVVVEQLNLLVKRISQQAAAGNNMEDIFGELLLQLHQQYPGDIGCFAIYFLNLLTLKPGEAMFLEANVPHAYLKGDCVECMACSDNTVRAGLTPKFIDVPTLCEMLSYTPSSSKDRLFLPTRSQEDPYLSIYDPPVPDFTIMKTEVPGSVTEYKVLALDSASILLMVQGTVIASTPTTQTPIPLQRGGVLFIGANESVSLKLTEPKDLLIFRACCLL
The experiment in a line: MPI inhibition at elevated mannose 6-phosphate – biochemical, fluorescence intensity, high mannose 6-phosphate, primary screen (AID 1220).

Assay [3] has as its target T3, Voltage-gated N-type calcium channel alpha-1B subunit/Amyloid beta A4 precursor protein-binding family A member 1 (Homo sapiens, UniProt Q00975+Q02410). In kind it is protein assay.
Assay [4] concerns the target T3, Voltage-gated N-type calcium channel alpha-1B subunit/Amyloid beta A4 precursor protein-binding family A member 1. Format: protein assay. The source holds these as a separate data set.
A further assay concerns the target Paired box protein Pax-8 (Homo sapiens, UniProt Q06710). The experiment in a line: PAX8 transcriptional activity inhibition in RMG-I – RMG-I cells, luciferase, cherry-pick, dose response (AID 687027).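 Also: luciferase reporter driven by Pax8 target thyroperoxidase promoter measured by SteadyGlo luminescence.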 Format: functional, cell-based.
In another assay the test system is INS1. The experiment in a line: INS-1E survival protection against cytokine death – cell-based, luminescence, retest, dose response (AID 449756).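 Also: cell death triggered by IL-1 beta plus TNF-alpha plus IFN-gamma mixture; protective hits raise ATP signal compared with cytokine alone wells.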 In kind it is functional. The following applies: Rattus norvegicus.
Assay [5] can be described thus: NIH3T3 cell viability loss – ATP luminescence, mouse fibroblasts, counter-screen, dose response (AID 2010).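 Also: cells exposed to compound for about 90 hours before reading.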 In kind it is functional, cell-based. A general note: The purpose of a counterscreen is to sort out artefacts and off-target activity.
Assay [6] is described as follows: Trypanosoma cruzi growth suppression in host cells – NIH3T3 host cells, beta-gal luminescence, confirmation (AID 2044).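 Also: intracellular parasites grown in NIH/3T3 mouse fibroblasts as host cells; luminescent beta-galactosidase reporter signal from transgenic T. cruzi replicating inside host cells; inhibitors lower the luminescence signal.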 In kind it is functional, cell-based.
Assay [7] deals with Aryl hydrocarbon receptor (Homo sapiens, UniProt P35869). The experiment in a line: Luminescence-based cell-based high throughput dose response assay for activators of the Aryl Hydrocarbon Receptor (AHR). [Related pubchem assays: 2796 (Primary screen (AHR activators in singlicate)), 2845 (Confirmation screen (AHR activators in triplicate)), 434939 (Counterscreen (PXR activators in triplicate)), 2804 (Summary (AHR activators))]. Format: ADME.

The target in assay [8] is T4, Induced myeloid leukemia cell differentiation protein Mcl-1 (Homo sapiens, UniProt Q07820). In kind it is functional.
T4 sequence (Q07820 whole entry): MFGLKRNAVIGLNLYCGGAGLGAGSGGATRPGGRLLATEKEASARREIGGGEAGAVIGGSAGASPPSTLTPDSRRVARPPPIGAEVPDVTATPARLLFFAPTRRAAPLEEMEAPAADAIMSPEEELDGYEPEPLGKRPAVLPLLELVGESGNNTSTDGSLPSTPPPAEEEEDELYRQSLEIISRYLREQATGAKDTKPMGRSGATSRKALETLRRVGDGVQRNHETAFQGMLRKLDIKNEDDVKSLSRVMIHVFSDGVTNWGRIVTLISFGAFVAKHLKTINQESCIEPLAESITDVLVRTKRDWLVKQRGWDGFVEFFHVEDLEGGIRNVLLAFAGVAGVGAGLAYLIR
Assay [9] concerns the target Protein-tyrosine kinase 2-beta (Homo sapiens, UniProt Q14289).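 Also: potency of inhibitors of PYK2 kinase phosphorylation of poly-GT substrate.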
Assay [10] addresses T5, Tyrosine-protein phosphatase non-receptor type 7 (Homo sapiens, UniProt P35236).
T5 sequence (P35236 whole entry): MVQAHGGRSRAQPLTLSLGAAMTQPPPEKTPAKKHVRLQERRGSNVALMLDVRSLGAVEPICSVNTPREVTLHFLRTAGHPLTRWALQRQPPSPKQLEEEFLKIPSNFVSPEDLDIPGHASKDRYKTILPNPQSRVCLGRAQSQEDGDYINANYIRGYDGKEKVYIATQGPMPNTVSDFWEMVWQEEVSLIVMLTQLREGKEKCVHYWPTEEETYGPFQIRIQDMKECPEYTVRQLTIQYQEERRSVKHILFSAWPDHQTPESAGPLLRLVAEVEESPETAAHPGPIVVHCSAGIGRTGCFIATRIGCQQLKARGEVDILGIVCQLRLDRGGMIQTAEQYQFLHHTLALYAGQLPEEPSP
Format: functional.

The target of assay [11] is T6, Dual specificity protein phosphatase 6 (Rattus norvegicus, UniProt Q64346).
T6 sequence (Q64346 whole entry): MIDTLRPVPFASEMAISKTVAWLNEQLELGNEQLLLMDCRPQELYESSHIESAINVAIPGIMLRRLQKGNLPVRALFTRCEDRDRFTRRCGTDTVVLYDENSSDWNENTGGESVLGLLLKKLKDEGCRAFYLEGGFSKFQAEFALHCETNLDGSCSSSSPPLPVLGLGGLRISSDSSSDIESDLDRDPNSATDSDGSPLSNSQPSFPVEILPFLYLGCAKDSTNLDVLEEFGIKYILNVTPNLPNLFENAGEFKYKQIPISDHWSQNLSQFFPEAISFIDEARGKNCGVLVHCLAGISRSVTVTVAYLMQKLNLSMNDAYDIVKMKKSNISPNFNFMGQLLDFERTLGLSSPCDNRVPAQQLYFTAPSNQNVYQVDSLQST

Assay [12] concerns the target T6, Dual specificity protein phosphatase 6. In kind it is functional.
In assay [13] the target is Glyceraldehyde-3-phosphate dehydrogenase (Homo sapiens, UniProt P04406).
Chain of Glyceraldehyde-3-phosphate dehydrogenase (P04406 whole entry): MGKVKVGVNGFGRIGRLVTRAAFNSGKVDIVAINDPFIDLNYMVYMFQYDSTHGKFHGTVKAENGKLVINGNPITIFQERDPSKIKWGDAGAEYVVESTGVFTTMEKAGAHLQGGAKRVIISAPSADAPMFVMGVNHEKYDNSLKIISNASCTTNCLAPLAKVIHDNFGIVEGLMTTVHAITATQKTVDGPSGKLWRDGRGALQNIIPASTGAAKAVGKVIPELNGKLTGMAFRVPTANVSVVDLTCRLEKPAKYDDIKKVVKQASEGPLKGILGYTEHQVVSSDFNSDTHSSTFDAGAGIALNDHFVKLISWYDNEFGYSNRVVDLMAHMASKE
Assay [14] deals with T4, Induced myeloid leukemia cell differentiation protein Mcl-1. Put plainly: blockers of MCL1 binding to BIM peptide – biochemical, fluorescence polarization, BIM-BH3 peptide, 1536-well, dose response (AID 2217).
The target of a further assay is Bcl-2-like protein 1 (Homo sapiens, UniProt Q07817). Put plainly: blockers of BCLXL peptide binding – biochemical, fluorescence polarization, 1536-well, selectivity assay for MCL1 inhibitor project, dose response (AID 2218). For orientation: Fluorescence polarisation rises when a labelled molecule tumbles more slowly, as on binding a larger partner.
Chain of Bcl-2-like protein 1 (Q07817 whole entry): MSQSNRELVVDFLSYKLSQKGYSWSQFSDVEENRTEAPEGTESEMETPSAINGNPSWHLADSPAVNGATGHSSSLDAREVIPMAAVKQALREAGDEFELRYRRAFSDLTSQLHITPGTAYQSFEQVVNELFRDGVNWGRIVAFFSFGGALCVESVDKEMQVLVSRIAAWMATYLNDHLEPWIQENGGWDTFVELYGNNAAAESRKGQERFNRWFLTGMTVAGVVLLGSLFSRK

The source made the active and inactive calls. Some results are limits rather than exact numbers.

T3 sequence (Q00975 whole entry): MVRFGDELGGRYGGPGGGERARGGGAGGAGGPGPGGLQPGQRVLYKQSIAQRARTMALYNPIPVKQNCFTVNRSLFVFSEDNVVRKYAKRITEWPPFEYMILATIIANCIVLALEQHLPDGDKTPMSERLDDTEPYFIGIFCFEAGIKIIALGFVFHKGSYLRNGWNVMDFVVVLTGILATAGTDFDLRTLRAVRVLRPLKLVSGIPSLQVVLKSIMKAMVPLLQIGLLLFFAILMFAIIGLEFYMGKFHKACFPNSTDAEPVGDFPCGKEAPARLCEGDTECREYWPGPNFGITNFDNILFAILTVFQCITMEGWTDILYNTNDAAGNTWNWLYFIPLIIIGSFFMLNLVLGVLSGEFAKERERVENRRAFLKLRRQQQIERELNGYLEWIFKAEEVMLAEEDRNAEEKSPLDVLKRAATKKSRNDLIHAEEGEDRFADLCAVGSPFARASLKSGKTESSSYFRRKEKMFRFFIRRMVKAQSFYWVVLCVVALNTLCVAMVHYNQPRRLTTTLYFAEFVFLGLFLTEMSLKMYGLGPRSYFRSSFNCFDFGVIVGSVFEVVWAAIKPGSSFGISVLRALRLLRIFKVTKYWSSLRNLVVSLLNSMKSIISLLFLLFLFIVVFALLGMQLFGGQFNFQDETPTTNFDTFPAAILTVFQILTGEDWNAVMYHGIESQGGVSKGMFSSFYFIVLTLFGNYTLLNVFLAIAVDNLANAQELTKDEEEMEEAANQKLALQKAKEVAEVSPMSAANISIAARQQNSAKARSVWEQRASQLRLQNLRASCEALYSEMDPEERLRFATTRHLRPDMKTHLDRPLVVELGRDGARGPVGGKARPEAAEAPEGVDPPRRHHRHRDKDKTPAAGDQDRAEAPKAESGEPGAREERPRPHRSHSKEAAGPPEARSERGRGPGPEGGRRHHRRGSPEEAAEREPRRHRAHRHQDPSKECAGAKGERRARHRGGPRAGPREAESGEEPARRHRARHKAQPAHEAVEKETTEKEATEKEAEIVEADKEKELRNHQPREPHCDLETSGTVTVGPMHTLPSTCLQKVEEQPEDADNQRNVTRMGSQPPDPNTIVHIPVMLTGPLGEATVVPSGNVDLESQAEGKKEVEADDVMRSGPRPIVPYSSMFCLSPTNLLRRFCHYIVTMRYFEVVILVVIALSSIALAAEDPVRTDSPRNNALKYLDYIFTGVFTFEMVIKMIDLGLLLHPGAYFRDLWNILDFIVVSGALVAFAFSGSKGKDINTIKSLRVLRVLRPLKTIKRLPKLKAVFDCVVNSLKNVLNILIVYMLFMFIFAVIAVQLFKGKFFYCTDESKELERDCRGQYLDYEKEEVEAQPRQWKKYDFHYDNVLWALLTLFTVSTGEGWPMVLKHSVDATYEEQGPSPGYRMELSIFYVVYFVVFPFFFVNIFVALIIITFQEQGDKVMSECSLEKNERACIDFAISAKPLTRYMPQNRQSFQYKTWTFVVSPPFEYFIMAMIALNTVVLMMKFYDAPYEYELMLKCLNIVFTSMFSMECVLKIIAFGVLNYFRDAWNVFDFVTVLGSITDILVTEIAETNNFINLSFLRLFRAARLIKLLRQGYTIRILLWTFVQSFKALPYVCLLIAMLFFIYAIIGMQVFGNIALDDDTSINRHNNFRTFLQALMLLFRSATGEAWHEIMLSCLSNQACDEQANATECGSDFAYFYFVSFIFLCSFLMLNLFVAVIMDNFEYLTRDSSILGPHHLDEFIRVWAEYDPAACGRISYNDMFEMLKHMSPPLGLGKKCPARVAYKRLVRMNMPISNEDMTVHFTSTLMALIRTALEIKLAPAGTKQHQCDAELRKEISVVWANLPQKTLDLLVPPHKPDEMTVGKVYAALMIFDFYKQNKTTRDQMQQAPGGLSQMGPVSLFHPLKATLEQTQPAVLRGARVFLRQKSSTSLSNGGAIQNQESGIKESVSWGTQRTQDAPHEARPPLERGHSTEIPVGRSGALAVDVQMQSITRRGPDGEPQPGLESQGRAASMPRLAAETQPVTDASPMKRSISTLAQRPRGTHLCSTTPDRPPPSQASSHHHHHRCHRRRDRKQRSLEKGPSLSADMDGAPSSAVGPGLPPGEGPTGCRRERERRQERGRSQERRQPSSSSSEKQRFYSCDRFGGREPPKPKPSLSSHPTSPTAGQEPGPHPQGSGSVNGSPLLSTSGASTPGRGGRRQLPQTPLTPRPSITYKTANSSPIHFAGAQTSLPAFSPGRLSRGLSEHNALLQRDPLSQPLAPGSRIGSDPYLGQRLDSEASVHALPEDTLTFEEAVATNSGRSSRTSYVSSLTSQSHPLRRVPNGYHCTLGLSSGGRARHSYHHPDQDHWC
T3 sequence (Q02410 whole entry): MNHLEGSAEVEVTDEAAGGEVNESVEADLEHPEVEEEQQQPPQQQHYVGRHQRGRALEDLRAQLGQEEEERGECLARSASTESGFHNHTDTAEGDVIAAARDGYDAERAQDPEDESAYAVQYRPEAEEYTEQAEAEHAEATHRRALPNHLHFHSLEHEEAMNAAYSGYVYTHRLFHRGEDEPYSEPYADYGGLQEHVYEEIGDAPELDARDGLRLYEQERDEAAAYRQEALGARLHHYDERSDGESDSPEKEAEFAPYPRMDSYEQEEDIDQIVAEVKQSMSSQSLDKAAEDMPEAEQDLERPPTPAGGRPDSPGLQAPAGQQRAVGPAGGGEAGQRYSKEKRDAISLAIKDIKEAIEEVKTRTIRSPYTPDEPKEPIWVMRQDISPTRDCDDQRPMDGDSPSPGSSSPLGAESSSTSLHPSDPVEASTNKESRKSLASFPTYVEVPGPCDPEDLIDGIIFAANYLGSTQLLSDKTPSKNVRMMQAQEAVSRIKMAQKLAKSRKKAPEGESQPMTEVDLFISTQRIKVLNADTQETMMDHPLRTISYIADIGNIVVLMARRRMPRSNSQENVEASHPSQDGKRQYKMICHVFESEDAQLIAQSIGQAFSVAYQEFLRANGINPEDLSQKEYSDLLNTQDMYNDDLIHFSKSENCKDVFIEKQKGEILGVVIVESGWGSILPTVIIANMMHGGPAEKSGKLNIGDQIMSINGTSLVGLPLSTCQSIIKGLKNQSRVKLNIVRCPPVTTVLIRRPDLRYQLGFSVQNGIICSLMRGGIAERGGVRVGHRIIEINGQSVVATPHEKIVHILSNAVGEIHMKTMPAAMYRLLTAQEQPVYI

Turning to `N#Cc1c(NC(=O)CSc2ncnc3c2cnn3-c2ccccc2Cl)sc2c1CCCC2`, the IC50 in [1] is reported as > 50 µM (not active).
Turning to `OC(CN1CCOCC1)CN(c1ccccc1)c1ccccc1` (centres undefined), the IC50 at 14-3-3 protein gamma is > 50 µM (not active).
Regarding `O=c1[nH]c2ccccc2c(O)c1O`, the IC50 at Insulin-degrading enzyme is 3.28 µM (active); in assay [2], 9.69 µM (active); in assay [3], 28.5 µM (active); in assay [4] it was 2.71 µM (active).
For the compound `CCc1ccc2[nH]c3nc(N/N=C/c4ccc(O)cc4O)nnc3c2c1`, the AC50 on Paired box protein Pax-8 was 2.7 µM (active); in the assay on INS1, 1.58 µM (active). Besides, the results for the EC50 in assay [5], in assay [6] and in [7] were 17.7 µM (active), 2.44 µM (active) and > 91.7 µM (not active), respectively.
Regarding `Cc1cc(NC(=O)Cc2cccs2)no1`, the IC50 in [8] was 1.58 µM (active); in [9] it was 6.64 µM (active); in assay [10] it was 3.93 µM (active); in assay [11], 15.3 µM (active); in assay [12] it was 13.1 µM (active); in [13], 92.2 µM (active). For the same compound, the IC50 in assay [14] is 4.05 µM (active); at Bcl-2-like protein 1, 53.2 µM (not active).
